Assay [1] has as its system Ferkel. The assay can be described thus: Feeding trial with piglets, Beispiel 1 (daily weight gain and feed conversion). The format is in vivo. From the text:
a) Tier-Charakteristik und Futter
• a1) Ferkel • a2) Anzahl 30 • a3) Zucht große weiße Landrasse Kreuzungszucht • a4) Geschlecht männlich • a5) Alter etwa 8 bis 14 Wochen • a6) Gewicht 17,5 bis 45 kg • a7) Zustand gut • a8) Futter [formula]
Ingredientien: • Weizen, Gerste, Hirse, Kleie, Fleischmehl, Sojabohnenmehl, Baumwollsamenmehl, Sonnenblumensamenmehl, Lysin, Salz, Kalkstein, 2RO, MnO, Kupfer- und Eisensulfat, Kaliumjodid, Vitamine A, D, E, K, B/2, Niazin, Pantothensäure.
Die Behandlung der Tiere wurde in 5 Behandlungsgruppen durchgeführt. Das Anfangsgewicht für jede Gruppe war gleich.
Die Ferkel wurden […] gewogen. Es wurde die tägliche Gewichtszunahme und Futterverwertung bestimmt. Wöchentliches Wiegen und individuelle Futteraufnahme wurden notiert.

Assay [2] has as its system Ferkel. Nature of the assay: Feeding trial with piglets, Beispiel 2 (weight gain, feed conversion, back fat thickness by ultrasound). The format is in vivo. From the text: a) Tiercharakteristik und Futter
Die Ferkel wurden zu Versuchbeginn und in wöchentlichen oder vierzehntägigen Abständen bis zum Versuchsende gewogen.
Futtermenge und Mortalität wurden täglich notiert.
Die Rückenfettstärke wurde per Ultraschall am Versuchsende gemessen und auf 75 kg Lebendgewicht korrigiert.

`Cc1c(C(=O)NCCO)[n+]([O-])c2ccccc2[n+]1[O-]` [d1)]: the “Durchschnittliche tägliche Gewichtszunahme” value with Ferkel [1] (Beispiel 1, Ferkel, male, about 8 to 14 weeks, 17,5 bis 45 kg, Konzentration (ppm): d1) 50, d2) 50, d3) 25:25, d4) 12,5:12,5, Kontrolle 537) was 593 g/Tag. Moreover, the “Durchschnittliches Futterverwertungsverhältnis” value with Ferkel [1] (Beispiel 1; Ferkel; groups e1)-e4) correspond to d1)-d4); concentration column printed empty; e5) (presumably control) 2,72) is recorded as 2,52 g/g. For the same molecule, the Futterverwertung is listed as 3,10 g/g in the assay with Ferkel [2] (40 kg bis 75 kg), 2,30 g/g in the assay on Ferkel [2] (Beginn bis 40 kg) and 2,74 g/g in the assay on Ferkel [2] (Beginn bis Ende). Besides, the Gewichtszunahme in the assay on Ferkel [2] (40 kg bis Ende) is recorded as 641 g/Tag; with Ferkel [2] (Beginn bis 40 kg), 499 g/Tag; in the assay with Ferkel [2] (Beginn bis Ende), 573 g/Tag.

The record behind these values is patent EP0073390A1, “Combination of active substances from kitasamycine and quinoxaline-di-N oxides” (BAYER AG, priority 1981, dated 1983).
